{"source": "patent US20130158007A1", "about": "(KEMPHARM, INC., priority 2010, published 2013)", "key": {"M5 muscarinic receptor": {"target": "T1, M5 muscarinic receptor (Homo sapiens, UniProt P08912)", "T1 sequence (P08912 1-532)": "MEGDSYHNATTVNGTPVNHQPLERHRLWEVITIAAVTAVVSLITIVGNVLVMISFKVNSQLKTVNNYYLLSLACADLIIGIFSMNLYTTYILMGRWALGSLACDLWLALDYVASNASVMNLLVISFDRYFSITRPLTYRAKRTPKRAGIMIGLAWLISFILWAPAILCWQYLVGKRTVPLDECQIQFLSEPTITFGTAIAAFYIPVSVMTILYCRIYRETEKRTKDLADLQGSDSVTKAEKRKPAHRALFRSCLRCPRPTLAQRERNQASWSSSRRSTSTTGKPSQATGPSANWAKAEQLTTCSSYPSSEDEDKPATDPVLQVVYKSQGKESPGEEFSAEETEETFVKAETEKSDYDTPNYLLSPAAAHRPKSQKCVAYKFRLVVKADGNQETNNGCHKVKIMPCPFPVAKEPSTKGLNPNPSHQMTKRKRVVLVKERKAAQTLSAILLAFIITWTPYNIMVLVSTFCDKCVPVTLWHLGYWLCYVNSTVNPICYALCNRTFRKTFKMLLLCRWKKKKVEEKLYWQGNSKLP", "details": "cited from earlier work"}, "α1B-adrenergic receptor": {"target": "T2, α1B-adrenergic receptor (Homo sapiens, UniProt P35368)", "T2 sequence (P35368 1-520)": "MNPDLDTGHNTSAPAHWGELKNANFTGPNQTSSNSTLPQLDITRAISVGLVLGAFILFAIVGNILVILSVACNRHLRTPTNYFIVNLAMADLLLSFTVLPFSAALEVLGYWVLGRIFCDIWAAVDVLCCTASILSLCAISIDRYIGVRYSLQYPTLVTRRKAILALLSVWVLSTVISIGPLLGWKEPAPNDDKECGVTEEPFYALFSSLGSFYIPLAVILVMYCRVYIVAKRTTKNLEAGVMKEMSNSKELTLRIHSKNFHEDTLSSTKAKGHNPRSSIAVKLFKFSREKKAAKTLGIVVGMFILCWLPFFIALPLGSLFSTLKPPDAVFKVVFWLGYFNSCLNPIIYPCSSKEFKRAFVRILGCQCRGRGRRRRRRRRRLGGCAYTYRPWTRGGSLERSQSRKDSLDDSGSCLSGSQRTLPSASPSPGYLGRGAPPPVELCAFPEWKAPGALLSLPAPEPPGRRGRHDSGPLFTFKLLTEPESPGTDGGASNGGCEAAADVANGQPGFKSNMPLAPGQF", "details": "cited from earlier work"}, "[1]": {"target": "serotonin 5-HT1E receptor (Homo sapiens, UniProt P28566)", "sequence (P28566 whole entry)": "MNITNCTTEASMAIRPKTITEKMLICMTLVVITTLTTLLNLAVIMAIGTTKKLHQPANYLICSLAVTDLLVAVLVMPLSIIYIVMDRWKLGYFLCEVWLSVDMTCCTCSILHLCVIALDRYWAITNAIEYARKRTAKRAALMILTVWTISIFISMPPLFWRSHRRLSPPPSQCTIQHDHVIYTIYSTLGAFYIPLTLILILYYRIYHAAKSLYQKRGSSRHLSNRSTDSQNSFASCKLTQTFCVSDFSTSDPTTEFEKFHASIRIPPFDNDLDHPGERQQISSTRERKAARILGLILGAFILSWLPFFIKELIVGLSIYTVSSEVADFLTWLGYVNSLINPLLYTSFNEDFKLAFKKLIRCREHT", "details": "cited from earlier work"}, "[2]": {"target": "serotonin 5-HT2B receptor (Homo sapiens, UniProt P41595)", "sequence (P41595 whole entry)": "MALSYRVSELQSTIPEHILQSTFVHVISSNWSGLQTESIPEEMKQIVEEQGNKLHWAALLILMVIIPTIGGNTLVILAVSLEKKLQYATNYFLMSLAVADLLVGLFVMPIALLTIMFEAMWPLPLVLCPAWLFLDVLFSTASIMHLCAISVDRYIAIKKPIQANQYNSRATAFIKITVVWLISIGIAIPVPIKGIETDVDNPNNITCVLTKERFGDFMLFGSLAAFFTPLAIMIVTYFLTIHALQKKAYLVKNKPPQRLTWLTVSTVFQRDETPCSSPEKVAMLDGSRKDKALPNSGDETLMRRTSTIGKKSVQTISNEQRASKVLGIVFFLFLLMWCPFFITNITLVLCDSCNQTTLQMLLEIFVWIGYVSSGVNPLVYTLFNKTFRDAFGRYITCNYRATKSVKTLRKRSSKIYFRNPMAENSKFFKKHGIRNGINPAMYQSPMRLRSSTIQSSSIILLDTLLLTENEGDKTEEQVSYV", "details": "cited from earlier work"}, "[3]": {"target": "norepinephrine reuptake transporter (NET) (Homo sapiens, UniProt P23975)", "sequence (P23975 whole entry)": "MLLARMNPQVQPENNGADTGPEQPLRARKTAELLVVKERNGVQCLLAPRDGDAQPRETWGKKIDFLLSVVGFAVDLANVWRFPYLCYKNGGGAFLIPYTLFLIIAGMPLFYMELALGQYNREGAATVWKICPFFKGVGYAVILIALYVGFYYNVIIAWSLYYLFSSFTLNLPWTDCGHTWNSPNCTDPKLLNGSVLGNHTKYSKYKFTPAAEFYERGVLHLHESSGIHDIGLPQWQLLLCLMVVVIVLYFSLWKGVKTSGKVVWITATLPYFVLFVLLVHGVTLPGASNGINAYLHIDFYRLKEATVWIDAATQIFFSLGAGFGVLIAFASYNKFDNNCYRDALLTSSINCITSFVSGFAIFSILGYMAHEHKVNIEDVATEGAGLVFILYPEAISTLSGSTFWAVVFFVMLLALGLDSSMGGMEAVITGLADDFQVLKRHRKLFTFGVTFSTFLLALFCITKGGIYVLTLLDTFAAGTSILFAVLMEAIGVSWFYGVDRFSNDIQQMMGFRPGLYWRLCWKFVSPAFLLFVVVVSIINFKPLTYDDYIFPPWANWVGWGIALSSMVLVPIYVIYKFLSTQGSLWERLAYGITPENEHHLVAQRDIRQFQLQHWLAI", "details": "cited from earlier work"}, "M3 muscarinic receptor": {"target": "M3 muscarinic receptor (Homo sapiens, UniProt P20309)", "sequence (P20309 whole entry)": "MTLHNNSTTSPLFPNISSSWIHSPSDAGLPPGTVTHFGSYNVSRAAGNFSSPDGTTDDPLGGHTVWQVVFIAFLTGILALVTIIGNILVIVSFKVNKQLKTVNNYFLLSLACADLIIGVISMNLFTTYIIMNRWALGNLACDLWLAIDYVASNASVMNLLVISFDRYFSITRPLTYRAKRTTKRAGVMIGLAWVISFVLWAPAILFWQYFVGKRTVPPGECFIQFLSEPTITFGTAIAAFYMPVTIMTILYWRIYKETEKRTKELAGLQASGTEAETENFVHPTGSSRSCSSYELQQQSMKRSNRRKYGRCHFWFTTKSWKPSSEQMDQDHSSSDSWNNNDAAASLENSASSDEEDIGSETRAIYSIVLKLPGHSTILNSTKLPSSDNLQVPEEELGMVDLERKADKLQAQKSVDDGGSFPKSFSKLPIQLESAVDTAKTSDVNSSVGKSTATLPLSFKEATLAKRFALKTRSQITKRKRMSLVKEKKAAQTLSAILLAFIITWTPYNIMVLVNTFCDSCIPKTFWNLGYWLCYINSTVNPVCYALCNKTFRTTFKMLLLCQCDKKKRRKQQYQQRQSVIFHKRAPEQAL", "details": "cited from earlier work"}, "[4]": {"target": "T3, serotonin 5-HT1A receptor (Homo sapiens, UniProt P08908)", "T3 sequence (P08908 1-422)": "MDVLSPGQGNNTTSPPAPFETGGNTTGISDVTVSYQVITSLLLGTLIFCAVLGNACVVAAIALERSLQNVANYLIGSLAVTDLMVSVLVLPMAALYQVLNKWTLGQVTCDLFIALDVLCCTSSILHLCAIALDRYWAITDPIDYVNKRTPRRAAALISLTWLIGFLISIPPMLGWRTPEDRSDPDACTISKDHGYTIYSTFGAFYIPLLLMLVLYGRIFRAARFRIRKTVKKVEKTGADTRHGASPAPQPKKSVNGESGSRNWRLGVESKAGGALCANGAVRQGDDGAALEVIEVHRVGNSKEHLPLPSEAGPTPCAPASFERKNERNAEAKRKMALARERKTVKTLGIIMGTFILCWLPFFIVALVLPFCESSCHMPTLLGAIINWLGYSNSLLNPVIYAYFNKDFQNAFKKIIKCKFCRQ", "details": "cited from earlier work"}, "M1 muscarinic receptor": {"target": "T4, M1 muscarinic receptor (Homo sapiens, UniProt P11229)", "T4 sequence (P11229 1-460)": "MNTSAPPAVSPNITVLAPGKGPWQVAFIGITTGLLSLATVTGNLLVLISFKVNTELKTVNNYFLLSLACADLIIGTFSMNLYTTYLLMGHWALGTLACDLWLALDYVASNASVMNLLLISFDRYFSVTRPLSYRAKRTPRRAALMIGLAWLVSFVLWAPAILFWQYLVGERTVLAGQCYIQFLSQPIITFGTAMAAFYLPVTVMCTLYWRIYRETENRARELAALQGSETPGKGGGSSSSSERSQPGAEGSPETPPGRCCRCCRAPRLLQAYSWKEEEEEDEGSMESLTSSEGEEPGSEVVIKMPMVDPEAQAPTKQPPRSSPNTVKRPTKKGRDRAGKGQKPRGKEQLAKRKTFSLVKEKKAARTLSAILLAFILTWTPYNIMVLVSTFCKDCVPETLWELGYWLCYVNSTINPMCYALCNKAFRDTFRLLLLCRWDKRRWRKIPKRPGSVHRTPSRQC", "details": "cited from earlier work"}, "histamine H1 receptor": {"target": "histamine H1 receptor (Homo sapiens, UniProt P35367)", "sequence (P35367 whole entry, species assumed)": "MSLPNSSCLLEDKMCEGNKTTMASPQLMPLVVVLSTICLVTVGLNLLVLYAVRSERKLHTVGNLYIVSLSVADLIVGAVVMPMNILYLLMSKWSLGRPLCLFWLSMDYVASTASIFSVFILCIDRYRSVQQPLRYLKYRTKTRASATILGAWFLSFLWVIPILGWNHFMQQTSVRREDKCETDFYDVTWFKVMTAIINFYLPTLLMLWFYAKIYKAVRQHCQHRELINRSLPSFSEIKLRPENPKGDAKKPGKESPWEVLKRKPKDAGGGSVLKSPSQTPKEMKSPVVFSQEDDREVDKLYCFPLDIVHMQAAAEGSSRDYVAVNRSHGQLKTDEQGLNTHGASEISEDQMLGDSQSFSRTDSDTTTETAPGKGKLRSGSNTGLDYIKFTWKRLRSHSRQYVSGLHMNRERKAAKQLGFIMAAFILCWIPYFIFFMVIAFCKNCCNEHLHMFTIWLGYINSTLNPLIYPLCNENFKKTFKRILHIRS", "details": "cited from earlier work"}, "5-HT2A receptor": {"target": "5-HT2A receptor (Homo sapiens, UniProt P28223)", "sequence (P28223 whole entry)": "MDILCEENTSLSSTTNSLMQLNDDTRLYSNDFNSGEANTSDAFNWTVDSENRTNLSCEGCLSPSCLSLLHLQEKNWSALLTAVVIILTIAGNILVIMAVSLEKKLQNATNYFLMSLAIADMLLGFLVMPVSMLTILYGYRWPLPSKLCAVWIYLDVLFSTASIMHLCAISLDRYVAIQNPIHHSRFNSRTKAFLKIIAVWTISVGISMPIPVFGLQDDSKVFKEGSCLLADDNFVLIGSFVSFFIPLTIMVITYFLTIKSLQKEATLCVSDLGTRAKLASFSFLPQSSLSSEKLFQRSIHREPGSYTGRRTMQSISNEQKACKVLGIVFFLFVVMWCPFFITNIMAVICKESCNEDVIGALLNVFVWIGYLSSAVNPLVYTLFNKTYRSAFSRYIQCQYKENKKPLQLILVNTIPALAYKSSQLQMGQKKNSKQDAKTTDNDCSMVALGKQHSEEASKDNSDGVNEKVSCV", "details": "cited from earlier work"}, "5-HT1A receptor": {"target": "T5, 5-HT1A receptor (Homo sapiens, UniProt P08908)", "T5 sequence (P08908 1-422)": "T3 sequence (P08908 1-422)", "details": "relative to quetiapine; cited from earlier work"}, "serotonin 5-HT7 receptor": {"target": "serotonin 5-HT7 receptor (Homo sapiens, UniProt P34969)", "sequence (P34969 whole entry)": "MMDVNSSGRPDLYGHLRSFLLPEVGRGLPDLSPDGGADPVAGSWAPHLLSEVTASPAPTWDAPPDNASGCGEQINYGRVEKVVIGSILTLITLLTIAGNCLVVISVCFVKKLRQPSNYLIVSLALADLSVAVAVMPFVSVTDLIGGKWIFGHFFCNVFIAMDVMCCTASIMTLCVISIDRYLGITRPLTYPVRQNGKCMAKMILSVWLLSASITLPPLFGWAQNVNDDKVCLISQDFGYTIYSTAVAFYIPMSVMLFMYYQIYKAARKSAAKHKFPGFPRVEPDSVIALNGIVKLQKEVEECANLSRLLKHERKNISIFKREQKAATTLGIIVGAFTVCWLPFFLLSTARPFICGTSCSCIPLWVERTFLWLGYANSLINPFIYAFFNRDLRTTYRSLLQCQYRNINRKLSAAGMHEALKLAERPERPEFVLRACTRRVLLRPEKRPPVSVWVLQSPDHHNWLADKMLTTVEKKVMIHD", "details": "cited from earlier work"}, "[5]": {"details": "oral solution"}, "a1-adrenergic receptors": {"test_system": "a1-adrenergic receptors", "details": "cited from earlier work"}, "dopaminergic D1 receptor": {"target": "dopaminergic D1 receptor (Homo sapiens, UniProt P21728)", "sequence (P21728 whole entry)": "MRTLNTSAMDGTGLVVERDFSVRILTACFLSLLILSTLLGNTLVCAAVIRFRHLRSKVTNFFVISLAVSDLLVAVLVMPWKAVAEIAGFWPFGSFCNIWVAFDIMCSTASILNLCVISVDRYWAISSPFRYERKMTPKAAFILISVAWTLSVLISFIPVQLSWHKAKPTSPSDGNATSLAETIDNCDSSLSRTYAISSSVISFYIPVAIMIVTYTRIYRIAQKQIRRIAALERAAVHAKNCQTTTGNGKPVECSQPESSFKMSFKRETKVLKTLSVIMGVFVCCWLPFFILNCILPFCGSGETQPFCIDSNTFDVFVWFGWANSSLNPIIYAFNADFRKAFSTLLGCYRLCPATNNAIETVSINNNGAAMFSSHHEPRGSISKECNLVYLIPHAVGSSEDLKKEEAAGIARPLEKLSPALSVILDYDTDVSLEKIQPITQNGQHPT", "details": "cerebral receptors; cited from earlier work"}, "dopaminergic D2 receptor": {"target": "dopaminergic D2 receptor (Homo sapiens, UniProt P14416)", "sequence (P14416 whole entry)": "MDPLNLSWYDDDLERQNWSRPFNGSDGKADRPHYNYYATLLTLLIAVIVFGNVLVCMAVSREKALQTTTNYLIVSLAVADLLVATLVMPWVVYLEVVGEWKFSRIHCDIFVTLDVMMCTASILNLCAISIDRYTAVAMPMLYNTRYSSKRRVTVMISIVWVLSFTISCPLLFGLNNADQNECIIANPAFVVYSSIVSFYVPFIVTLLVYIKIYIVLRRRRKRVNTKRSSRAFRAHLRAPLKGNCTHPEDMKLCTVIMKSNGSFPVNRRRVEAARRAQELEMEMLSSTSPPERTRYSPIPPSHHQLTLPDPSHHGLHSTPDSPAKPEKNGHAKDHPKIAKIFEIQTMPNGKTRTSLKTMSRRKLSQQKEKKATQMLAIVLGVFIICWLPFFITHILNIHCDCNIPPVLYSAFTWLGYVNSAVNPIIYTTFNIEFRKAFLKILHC", "details": "cerebral receptors; cited from earlier work"}, "leptin": {"test_system": "leptin", "details": "chronic oral administration for 6 weeks; cited from earlier work"}, "α2-adrenergic receptors": {"test_system": "α2-adrenergic receptors", "details": "cited from earlier work"}, "[6]": {"details": "clinical trials; cited from earlier work"}, "[7]": {"details": "cited from earlier work"}, "[8]": {"details": "in vivo; cited from earlier work"}, "[9]": {"details": "patients, cited from earlier work"}}, "note": "Where a name gives a salt, the structure may show the parent alone."}
{"smiles": "c1ccc2c(c1)N=C(N1CCNCC1)c1ccccc1S2", "note": "[N-desalkyl-quetiapine]", "values": [{"measurement": "affinity", "setting": "M5 muscarinic receptor", "result": "moderate affinities"}, {"measurement": "affinity", "setting": "α1B-adrenergic receptor", "result": "moderate affinities"}, {"measurement": "affinity", "setting": "[1]", "result": "moderate affinities"}, {"measurement": "affinity", "setting": "[2]", "result": "moderate affinities"}, {"measurement": "affinity", "setting": "[3]", "result": "moderate affinities"}, {"measurement": "avidity for inhibiting human NET, fold higher than quetiapine", "setting": "[3]; relative to quetiapine", "result": "about 100 fold"}, {"measurement": "affinity", "setting": "M3 muscarinic receptor", "result": "moderate affinities"}, {"measurement": "affinity", "setting": "[4]", "result": "moderate affinities"}, {"measurement": "affinity", "setting": "M1 muscarinic receptor", "result": "moderate affinities"}, {"measurement": "affinity", "setting": "histamine H1 receptor", "result": "high affinity"}, {"measurement": "affinity", "setting": "5-HT2A receptor", "result": "moderate affinities"}, {"measurement": "potency at the 5-HT1A receptor, fold more potent than quetiapine", "setting": "5-HT1A receptor", "result": 10, "unit": "fold"}, {"measurement": "affinity", "setting": "serotonin 5-HT7 receptor", "result": "moderate affinities"}]}
{"smiles": "OCCOCCN1CCN(C2=Nc3ccccc3Sc3ccccc32)CC1", "note": "[quetiapine fumarate]", "values": [{"measurement": "solubility for dosing via oral gavage in rats", "setting": "[5]", "result": "not soluble enough"}]}
{"smiles": "OCCOCCN1CCN(C2=Nc3ccccc3Sc3ccccc32)CC1", "note": "[quetiapine, 2-(2-(4-(dibenzo[b,f][1,4]thiazepin-11-yl)piperazin-1-yl)ethoxy)ethanol]", "values": [{"measurement": "affinity", "setting": "a1-adrenergic receptors", "result": "moderate affinity"}, {"measurement": "affinity", "setting": "dopaminergic D1 receptor", "result": "major affinity"}, {"measurement": "affinity", "setting": "dopaminergic D2 receptor", "result": "major affinity"}, {"measurement": "increase in leptin release", "setting": "leptin", "result": "about 37%"}, {"measurement": "affinity", "setting": "α2-adrenergic receptors", "result": "moderate affinity"}, {"measurement": "prolongation of the QT interval", "setting": "[6]", "result": "small insignificant prolongations"}, {"measurement": "terminal half-life time for elimination", "setting": "[7]; in vivo", "result": "about 7 hours"}, {"measurement": "Absolute bioavailability", "setting": "[7]; oral", "result": 9, "unit": "%"}]}
{"smiles": "CCCC(CCC)C(=O)O", "note": "[valproic acid, 2-propylpentanoic acid]", "values": [{"measurement": "response rate in bipolar depression", "setting": "[8]", "result": "~30", "unit": "%"}, {"measurement": "time to response", "setting": "[9]; acute mania", "result": "1-2 weeks"}, {"measurement": "response rate in acute mania", "setting": "[9]; placebo effect 20-30%", "result": "around 50%"}]}
